{"source": "patent US5466436A", "about": "“Medicaments for treating inflammatory conditions or for analgesia” (Glaxo Group Limited, priority 1991, dated 1995)", "key": {"[1]": {"test_system": "indomethacin-induced gastric antral ulceration", "assay": "Inhibition of indomethacin-induced gastric antral ulceration in the rat (modified Satoh et al.)", "assay_type": "in vivo", "conditions": "for potency compared with other test compounds (in words): ranitidine bismuth citrate versus ranitidine hydrochloride and De-Nol, po; for potency compared with other test compounds (in words) / inhibition of indomethacin-induced lesions (in words): rats; for inhibition of indomethacin-induced lesions (in words): ranitidine bismuth citrate 1 to 100 mg/kg po", "method": "The ability of ranitidine bismuth citrate to prevent indomethacin-induced gastric antral ulceration was compared with that of ranitidine hydrochloride and De-Nol™. Female rats, which had been fasted for 24 hours and then re-fed, received ranitidine bismuth citrate (1 to 100mg/kg), ranitidine hydrochloride (10 to 100mg/kg) or De-Nol™ (3 to 100mg/kg) by oral gavage. Ranitidine bismuth citrate was administered as a suspension and the other test compounds as solutions. Thirty minutes after dosing with the test compound, animals received indomethacin (60mg/kg sc) as an ulcerogenic stimulus and after a further 6 hours the animals were killed and the antral region assessed macroscopically for damage."}, "[2]": {"test_system": "mucosal lesions of the gastrointestinal tract caused by non-steroidal anti-inflammatory drugs", "assay": "Tests in animals and humans: mucosal lesions of the gastrointestinal tract caused by non-steroidal anti-inflammatory drugs", "assay_type": "in vivo"}, "[3]": {"test_system": "aspirin-induced injury to the gastric mucosa", "conditions": "human clinical study, N. Hudson et al., Gut 1992, 33 supplement, s47; cited from earlier work"}, "[4]": {"conditions": "listed as Ranitidine bismuth citrate"}, "[5]": {"conditions": "listed as ranitidine bismuth citrate"}}, "note": "Counter-ions that a name gives are not always drawn.", "data": [{"compound": "CNC(=C[N+](=O)[O-])NCCSCc1ccc(CN(C)C)o1", "note": "[Ranitidine Hydrochloride, ranitidine hydrochloride, reference compound]", "values": [{"measurement": "ED50", "setting": "[1]; Rattus norvegicus, female rats, oral gavage 30 min before indomethacin 60 mg/kg sc, antral damage assessed after a further 6 hours", "result": 23.4, "unit": "mg/kg"}, {"measurement": "potency compared with other test compounds (in words)", "setting": "[1]", "result": "markedly less potent"}]}, {"compound": "N-[2-[[[5-[(dimethylamino)methyl]-2-furanyl]methyl]thio]ethyl]-N'-methyl-2-nitro-1,1-ethenediamine 2-hydroxy-1,2,3-propanetricarboxylate bismuth (3^+) complex [Ranitidine Bismuth Citrate]", "values": [{"measurement": "ED50 for inhibition of indomethacin-induced antral ulceration", "setting": "[1]; female rats, oral gavage 30 min before indomethacin 60 mg/kg sc, antral damage assessed after a further 6 hours", "result": 4.5, "unit": "mg/kg p.o."}, {"measurement": "inhibition of indomethacin-induced lesions (in words)", "setting": "[1]; [4]", "result": "dose-related inhibition of indomethacin-induced lesions"}, {"measurement": "inhibition of indomethacin-induced lesions (in words)", "setting": "[1]; [5]", "result": "prevent indomethacin induced gastric antral ulceration"}, {"measurement": "potency compared with other test compounds (in words)", "setting": "[1]; [4]", "result": "relatively potent"}, {"measurement": "potency compared with other test compounds (in words)", "setting": "[1]; [5]", "result": "markedly more potent than both ranitidine hydrochloride and tripotassium dicitrato bismuthate as DeNol™"}, {"measurement": "reduction of NSAID-caused mucosal lesions of the gastrointestinal tract (in words)", "setting": "[2]", "result": "significantly reduced"}, {"measurement": "protection from aspirin-induced injury to the gastric mucosa (in words)", "setting": "[3]", "result": "substantial protection from aspirin-induced injury to the gastric mucosa"}]}]}
